From patent US11090304B2 (Amgen Inc., priority 2018, dated 2021)
pIC50: −log10 of the molar value.

The molecules below were run on Phosphorylation of ERK1/2 in MIA PaCa-2 cells (assay: Phospho-ERK1/2 MSD assay in MIA PaCa-2 cells). Details: Homo sapiens, MIA PaCa-2, 2 h, read-out: p-ERK IC50 (2 h; MIA PaCa-2), 2 h compound treatment.
Format: cell-based
Procedure: For compounds in Table 89, the following assay conditions were employed:
Phospho-ERK1/2 MSD Assay:
Sixteen hours prior to compound treatment, MIA PaCa-2 or A549 cells were seeded in 96-well cell culture plates at a density of 25,000 cells/well and incubated at 37° C., 5% CO2. A compound dose-response titration was diluted in growth media, added to appropriate wells of a cell culture plate, and then incubated at 37° C., 5% CO2 for 2 or 4 hours (see Table 15). Following compound treatment, cells were stimulated with 10 ng/mL EGF (Roche 11376454001) for 10 min, washed with ice-cold Dulbecco's phosphate-buffered saline, no Ca^2+ or Mg^2+ (ThermoFisher Scientific 14190144), and then lysed in RIPA buffer (50 mM Tris-HCl pH 7.5, 1% Igepal, 0.5% sodium deoxycholate, 150 mM NaCl, and 0.5% sodium dodecyl sulfate) containing protease inhibitors (Roche 4693132001) and phosphatase inhibitors (Roche 4906837001). Phosphorylation of ERK1/2 in compound-treated lysates was assayed using Phospho-ERK1/2 Whole Cell Lysate kits (Meso Scale Discovery K151DWD) according to the manufacturer's protocol. Assay plates were read on a Meso Scale Discovery Sector Imager 6000, and data were analyzed using a 4-parameter logistic model to calculate IC50 values.
In the case of `C=CC(=O)N1CCN(c2nc(=O)n(-c3c(C(C)C)ccnc3C)c3nc(-c4c(O)cccc4F)c(Cl)cc23)[C@@H](C)C1` [Example 54-17, 6-chloro-7-(2-fluoro-6-hydroxy-phenyl)-1-(2-methyl-4-(2-propanyl)-3-pyridinyl)-4-((2S)-2-methyl-4-(2-propenoyl)-1-piperazinyl) pyrido[2,3-d]pyrimidin-2(1H)-one], the pIC50 was 6.30. In the case of `C=CC(=O)N1CCN(c2nc(=O)n(-c3ccccc3C(C)C)c3nc(-c4ccccc4O)c(Cl)cc23)[C@@H](C)C1` [Example 54-43, 6-chloro-7-(2-hydroxyphenyl)-4-((2S)-2-methyl-4-(2-propenoyl)-1-piperazinyl)-1-(2-(2-propanyl)phenyl)pyrido [2,3-d]pyrimidin-2(1H)-one], the pIC50 was 6.60. With `C=CC(=O)N1CCN(c2nc(=O)n(-c3c(C)cnn3C(C)C)c3nc(-c4c(O)cccc4F)c(Cl)cc23)[C@@H](C)C1` [Example 54-70, 6-chloro-7-(2-fluoro-6-hydroxyphenyl)-1-(4-methyl-1-(2-propanyl)-1H-pyrazol-5-yl)-4-((2S)-2-methyl-4-(2-propenoyl)-1-piperazinyl) pyrido[2,3-d]pyrimidin-2(1H)-one] the pIC50 was 7.06. For `C=CC(=O)N1CCN(c2nc(=O)n(-c3c(C(C)C)ncnc3C(C)C)c3nc(-c4c(O)cccc4F)c(Cl)cc23)[C@@H](C)C1` [Example 55-2], the pIC50 was 7.60. For `C=CC(=O)N1CCN(c2nc(=O)n(-c3c(C)ncnc3C(C)C)c3nc(-c4c(O)cccc4F)c(Cl)cc23)[C@@H](C)C1` [Example 55-14, 6-chloro-7-(2-fluoro-6-hydroxyphenyl)-1-(4-methyl-6-(2-propanyl)-5-pyrimidinyl)-4-((2S)-2-methyl-4-(2-propenoyl)-1-piperazinyl)pyrido[2,3-d]pyrimidin-2(1H)-one], the pIC50 was 6.87. `C=CC(=O)N1CCN(c2nc(=O)n(-c3c(C)ncnc3C(C)C)c3nc(-c4c(O)cccc4F)c(F)cc23)[C@@H](C)C1` [Example 58-11, 6-fluoro-7-(2-fluoro-6-hydroxyphenyl)-1-(4-methyl-6-(2-propanyl)-5-pyrimidinyl)-4-((2S)-2-methyl-4-(2-propenoyl)-1-piperazinyl)pyrido[2,3-d]pyrimidin-2(1H)-one] showed a pIC50 of 6.13. `C=CC(=O)N1CCN(c2nc(=O)n(-c3c(C(C)C)ccnc3C)c3nc(-c4c(O)cccc4F)c(F)cc23)[C@@H](C)C1` [Example 58-15, 6-fluoro-7-(2-fluoro-6-hydroxyphenyl)-1-(2-methyl-4-(2-propanyl)-3-pyridinyl)-4-((2S)-2-methyl-4-(2-propenoyl)-1-piperazinyl)pyrido[2,3-d]pyrimidin-2(1H)-one] gave a pIC50 of 6.44. `C=CC(=O)N1CCN(c2nc(=O)n(-c3c(C)cccc3C(C)C)c3nc(-c4c(O)cccc4F)c(F)cc23)[C@@H](C)C1` [Example 58-18, 6-fluoro-7-(2-fluoro-6-hydroxyphenyl)-1-(2-methyl-6-(2-propanyl)phenyl)-4-((2S)-2-methyl-4-(2-propenoyl)-1-piperazinyl)pyrido[2,3-d]pyrimidin-2(1H)-one] gave a pIC50 of 6.57. `C=CC(=O)N1CCN(c2nc(=O)n(-c3ccccc3C(C)C)c3nc(N4CCCC4)c(Cl)cc23)[C@@H](C)C1` [Example 69-3, 6-chloro-4-((2S)-2-methyl-4-(2-propenoyl)-1-piperazinyl)-1-(2-(2-propanyl)phenyl)-7-(1-pyrrolidinyl)pyrido[2,3-d]pyrimidin-2(1H)-one] was tested, and the pIC50 was 5.77. `C=CC(=O)N1CCN(c2nc(C)c(-c3ccccc3C3CC3)c3nc(-c4ccccc4F)c(Cl)cc23)CC1` [Example 85-3, 1-(4-(3-chloro-8-(2-cyclopropylphenyl)-2-(2-fluorophenyl)-7-methyl-1,6-naphthyridin-5-yl)-1-piperazinyl)-2-propen-1-one] was tested, and the pIC50 was 5.00. `C=CC(=O)N1CCN(c2nc(C)c(-c3ccccc3C(C)C)c3nc(-c4ccccc4F)c(Cl)cc23)[C@@H](C)C1` [Example 85-4, 1-((3S)-4-(3-chloro-2-(2-fluorophenyl)-7-methyl-8-(2-(2-propanyl)phenyl)-1,6-naphthyridin-5-yl)-3-methyl-1-piperazinyl)-2-propen-1-one] was tested, and the pIC50 was 5.00. Work on `C=CC(=O)N1CCN(c2nc(CO)cc3nc(-c4ccccc4F)c(Cl)cc23)[C@@H](C)C1` [Example 150, 1-((3S)-4-(3-Chloro-2-(2-fluorophenyl)-7-(hydroxymethyl)-1,6-naphthyridin-5-yl)-3-methyl-1-piperazinyl)-2-propen-1-one] yielded a pIC50 of 5.48.

Same assay, conditions: Homo sapiens, MIA PaCa-2, 4 h, read-out: p-ERK IC50 (4 h; MIA PaCa-2), 4 h compound treatment
With `C=CC(=O)N1CCN(c2nc(=O)n(CC3(C(F)(F)F)CC3)c3nc(-c4ccccc4F)c(Cl)cc23)CC1` [Example 60-4, 6-chloro-7-(2-fluorophenyl)-4-(4-(2-propenoyl)-1-piperazinyl)-1-((1-(trifluoromethyl)cyclopropyl)methyl)pyrido[2,3-d]pyrimidin-2(1H)-one] the pIC50 was 5.65.

Same assay, conditions: read-out: p-ERK IC50 (2 h; MIA PaCa-2), 2 h compound treatment
`C=CC(=O)N1CCN(c2nc(=O)n(-c3c(C(C)C)ccnc3C)c3nc(-c4c(O)cccc4F)c(Cl)cc23)[C@@H](C)C1` (single isomer, unassigned) [Example 54-17-1] gave a pIC50 of 6.38. `C=CC(=O)N1CCN(c2nc(=O)n(-c3c(C)cnn3C(C)C)c3nc(-c4c(O)cccc4F)c(Cl)cc23)[C@@H](C)C1` (single isomer, unassigned) [Example 54-71-2] gave a pIC50 of 6.75. `C=CC(=O)N1CCN(c2nc(=O)n(-c3c(C)cccc3CC)c3nc(-c4c(O)cccc4F)c(Cl)cc23)[C@@H](C)C1` (single isomer, unassigned) [Example 55-8-1] gave a pIC50 of 7.35. `C=CC(=O)N1CCN(c2nc(=O)n(-c3c(C)cccc3CC)c3nc(-c4c(O)cccc4F)c(Cl)cc23)[C@@H](C)C1` (single isomer, unassigned) [Example 55-8-2] gave a pIC50 of 6.80. `C=CC(=O)N1CCN(c2nc(=O)n(-c3c(C)ncnc3C(C)C)c3nc(-c4c(O)cccc4F)c(Cl)cc23)[C@@H](C)C1` (single isomer, unassigned) [Example 55-14-1] was tested, and the pIC50 was 5.96. Molecule `C=CC(=O)N1CCN(c2nc(=O)n(-c3c(C)cccc3C(C)C)c3nc(-c4c(O)cccc4F)c(F)cc23)[C@@H](C)C1` (single isomer, unassigned) [Example 58-18-2] has a pIC50 of 6.15. `C=CC(=O)N1CCN(c2nc(=O)n(-c3ccccc3C(C)C)c3nc(-c4c(O)cccc4F)c(Cl)cc23)CC1` (single isomer, unassigned) [Example 60-24-2, (P)-6-chloro-7-(2-fluoro-6-hydroxyphenyl)-1-(2-(2-propanyl)phenyl)-4-(4-(2-propenoyl)-1-piperazinyl)pyrido[2,3-d]pyrimidin-2(1H)-one] was tested, and the pIC50 was 6.15. With `C=CC(=O)N1CCN(c2nc(=O)n(-c3ccccc3C(C)C)c3cc(-c4ccccc4F)c(Cl)cc23)CC1` (single isomer, unassigned) [Example 88-2, 6-chloro-7-(2 fluorophenyl)-1-(2-(2-propanyl)phenyl)-4-(4-(2-propenoyl)-1-piperazinyl)-2(1H)-quinazolinone] the pIC50 was 5.78.

Same assay, conditions: read-out: p-ERK IC50 (4 h; MIA PaCa-2), 4 h compound treatment
`C=CC(=O)N1CCN(c2nc(=O)n(-c3ccccc3C(C)C)c3nc(-c4c(O)cccc4F)c(Cl)cc23)CC1` (single isomer, unassigned) [Example 60-24-2, (P)-6-chloro-7-(2-fluoro-6-hydroxyphenyl)-1-(2-(2-propanyl)phenyl)-4-(4-(2-propenoyl)-1-piperazinyl)pyrido[2,3-d]pyrimidin-2(1H)-one] showed a pIC50 of 6.01.

These molecules were tested against GDP-bound KRAS protein (aa 1-169), containing both G12C and C118A amino acid substitutions (Homo sapiens, UniProt P01116, C118A/G12C) (assay: Coupled nucleotide exchange assay (SOS-mediated, AlphaScreen)). Details: 5 min compound pre-incubation.
Format: biochemical
`C=CC(=O)N1CCN(c2nc(C)c(C(=O)N(C(C)C)C(C)C)c3nc(-c4ccccc4F)c(Cl)cc23)CC1` [Example 144, 3-Chloro-2-(2-fluorophenyl)-7-methyl-N,N-di(2-propanyl)-5-(4-(2-propenoyl)-1-piperazinyl)-1,6-naphthyridine-8-carboxamide] was tested, and the “Coupled exchange IC50 (5 min)” value was 8.31 | nda μM. `C=CC(=O)N1CCN(c2nc(C#N)c(-c3ccccc3C(C)C)c3nc(-c4ccccc4F)c(Cl)cc23)CC1` [Example 146, 3-Chloro-2-(2-fluorophenyl)-8-(2-(2-propanyl)phenyl)-5-(4-(2-propenoyl)-1-piperazinyl)-1,6-naphthyridine-7-carbonitrile] was tested, and the “Coupled exchange IC50 (5 min)” value was 38.7 | nda μM. `C=CC(=O)N1CCN(c2nc(C(N)=O)c(-c3ccccc3C(C)C)c3nc(-c4ccccc4F)c(Cl)cc23)CC1` [Example 147, 3-Chloro-2-(2-fluorophenyl)-8-(2-(2-propanyl)phenyl)-5-(4-(2-propenoyl)-1-piperazinyl)-1,6-naphthyridine-7-carboxamide] was tested, and the “Coupled exchange IC50 (5 min)” value was 13.6 | nda μM. With `C=CC(=O)N1CCN(c2nc(CO)c(C(=O)N3[C@@H](C)CC[C@@H]3C)c3nc(-c4ccccc4F)c(Cl)cc23)CC1` [Example 149, 1-(4-(3-Chloro-8-(((2S,5S)-2,5-dimethyl-1-pyrrolidinyl)carbonyl)-2-(2-fluorophenyl)-7-(hydroxymethyl)-1,6-naphthyridin-5-yl)-1-piperazinyl)-2-propen-1-one] the “Coupled exchange IC50 (5 min)” value was 20.6 | nda μM.

Same assay, conditions: read-out: Coupled exchange IC50 (5 min); 5 min compound pre-incubation
“Mixture of (M)-6-chloro-7-((2R)-2-methyl-1-piperidinyl)-4-((2S)-2-methyl-4-(2-propenoyl)-1-piperazinyl)-1-(2-(2-propanyl)phenyl)pyrido[2,3-d]pyrimidin-2(1H)-one and (M)-6-chloro-7-((2S)-2-methyl-1-piperidinyl)-4-((2S)-2-methyl-4-(2-propenoyl)-1-piperazinyl)-1-(2-(2-propanyl)phenyl)pyrido[2,3-d]pyrimidin-2(1H)-one [Example 115]” gave a pIC50 of 5.53.
